Experimental data reported in patent EP3415164A1, “COMPOSITION COMPRISING A SPECIFIC P38A INHIBITOR AND AN AGENT THAT INDUCES CHROMOSOME INSTABILITY AND MEDICAL USES THEREOF” (Fundació Institut de Recerca Biomèdica (IRB Barcelona), priority 2017, dated 2018).

Tests used:
[1] = system: PyMT-induced mammary tumours; test: Growth, DNA damage and mitotic figures of PyMT-induced mammary tumours in treated mice; assay type: in vivo; details: for effect on tumour growth: taxane administered alone, 20 mg/kg once a week for three weeks
Procedure: Mouse experiments. PyMT p38αlox/lox UbCre female mice were generated by crossing p38αlox/lox mice (Ventura et al., 2007) with MMTV-PyMT, provided by William Muller (McGill University, Canada) and UbiquitinC-Cre-ERT2 mice (Ruzankina et al., 2007), being all mostly in FVB background. Mouse genotyping was performed by PCR using genomic tail DNA. Primers and conditions are available upon request. Mice were housed according to national and European Union regulations, and protocols were approved by the animal care and use committee of the Barcelona Science Park (PCB-CEEA). […] For p38α deletion, 4OHT (Sigma, H6278) was dissolved in 10% ethanol/90% corn oil (Sigma, C8267) and mice were injected intraperitoneally with 1 mg each day for five consecutive days. For chemotherapeutic treatments, mice were injected once a week with 20 mg/kg of docetaxel (Accord, 691719.0) or 20 mg/kg paclitaxel (Accord, 676253.0), for three consecutive weeks. […] Histology and immunohistochemistry. Tumours dissected from mice were fixed overnight in 10%-buffered formalin (Sigma, HT501128) and embedded in paraffin. Sections (5 µm-thick) were stained with hematoxylin and eosin (H&E). Specific antibodies were used for the following stainings: Ki67 (Novacastra, NCL), phospho-H3 (Millipore, 06-570), γ-H2AX (Millipore, 05-636). […] Apoptosis was detected by TUNEL using the "In situ Cell Death Detection Kit, Fluorescein" (Roche, 11684795910), following the manufacturer's instructions.

[2] = system: breast tumour patient-derived xenografts (PDXs); test: Breast tumour patient-derived xenografts (PDXs) treated with taxanes and PH797804; assay type: in vivo
[3] = PH797804 in combination with paclitaxel or docetaxel
[4] = combination therapy versus single treatments, around day 15, responding PDXs (TN1, TN2, Lum1, Lum2)

CNC(=O)c1ccc(C)c(-n2c(C)cc(OCc3ccc(F)cc3F)c(Br)c2=O)c1 [PH797804]
tumour size ([1]; PH797804 15 mg/kg daily by oral gavage in combination with paclitaxel or docetaxel): substantial reduction of tumour size | DNA damage (γ-H2AX staining) [1, 3]: increased levels of DNA damage | missegregation events (phospho-H3 staining) [1, 3]: higher number of missegregation events | aneuploidy (FISH, chromosome 17 centromeric probe) ([2]; PH797804 with paclitaxel versus paclitaxel): usually enhanced the aneuploidy induced by paclitaxel | detrimental outcome induced by p38α inhibition ([2]; all nine PDXs): never observed increased tumour growth or any other detrimental outcome | anti-tumour response ([2]; co-administration with paclitaxel or docetaxel versus taxane alone, most cases (seven of nine PDXs)): enhanced, accelerated or prolonged the anti-tumour response observed with the taxane alone | anti-tumour response ([2]; co-administration with taxane, PDX models TN5 and Lum4): no additional benefit was observed | missegregation events [2, 4]: increased percentage of missegregation events | γ-H2AX staining [2, 4]: increased γ-H2AX staining | effect on tumour growth ([2]; p38α inhibition (PH797804) alone, 15 mg/kg daily oral, most PDX models): mild effect on tumour growth

CC(=O)O[C@@]12CO[C@@H]1C[C@H](O)[C@@]1(C)C(=O)[C@H](O)C3=C(C)[C@@H](OC(=O)[C@H](O)[C@@H](NC(=O)OC(C)(C)C)c4ccccc4)C[C@@](O)([C@@H](OC(=O)c4ccccc4)[C@H]21)C3(C)C [docetaxel]
effect on tumour growth [1]: only exerted a cytostatic effect on tumour growth

CC(=O)O[C@H]1C(=O)[C@@]2(C)[C@H]([C@H](OC(=O)c3ccccc3)[C@]3(O)C[C@H](OC(=O)[C@H](O)[C@@H](NC(=O)c4ccccc4)c4ccccc4)C(C)=C1C3(C)C)[C@]1(OC(C)=O)CO[C@@H]1C[C@@H]2O [paclitaxel]
effect on tumour growth [1]: only exerted a cytostatic effect on tumour growth
